Like-named read-outs stand apart in the source and are kept apart here.
How the values were obtained:
[1] = target: T1, N-Formyl Peptide Receptor FPR1 (Homo sapiens, UniProt P21462); assay: Radioligand binding assay, N-Formyl Peptide Receptor FPR1; conditions: CONC. 10 μM, hum
T1 sequence (P21462 1-350): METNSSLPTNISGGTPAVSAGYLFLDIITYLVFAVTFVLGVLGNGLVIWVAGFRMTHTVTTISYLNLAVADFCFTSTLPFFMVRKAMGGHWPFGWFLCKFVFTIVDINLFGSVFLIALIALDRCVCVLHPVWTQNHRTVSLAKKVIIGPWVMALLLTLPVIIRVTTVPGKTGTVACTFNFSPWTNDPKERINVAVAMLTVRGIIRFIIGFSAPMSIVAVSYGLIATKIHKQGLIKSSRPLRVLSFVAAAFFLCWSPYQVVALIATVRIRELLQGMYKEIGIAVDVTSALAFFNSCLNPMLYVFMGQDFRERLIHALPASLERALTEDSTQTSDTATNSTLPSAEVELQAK
Procedure: Methods employed in this study have been adapted from the scientific literature to maximize reliability and reproducibility. Reference standards were run as an integral part of each assay to ensure the validity of the results obtained. Assays were performed under conditions described in the accompanying “Methods” section below. The literature reference(s) for each assay are in the “Literature References” section.
Where presented, IC50 values were determined by a non-linear, least squares regression analysis using MathIQ™ (ID Business Solutions Ltd., UK). Where inhibition constants (KI) are presented, the KI values were calculated using the equation of Cheng and Prusoff (Cheng, Y., Prusoff, W. H., Biochem. Pharmacol. 22:3099-3108, 1973) using the observed IC50 of the tested compound, the concentration of radioligand employed in the assay, and the historical values for the KD of the ligand (obtained experimentally at Ricerca Biosciences, LLC). Where presented, the Hill coefficient (nH), defining the slope of the competitive binding curve, was calculated using MathIQ™. […] Where IC50, KI, and/or nH data are presented without Standard Error of the Mean (SEM), data are insufficient to be quantitative, and the values presented (KI, IC50, nH) should be interpreted with caution. […]

[2] = Screen at 10 μM against 168 targets; type: binding
S. aureus = assay: In vitro activity (MIC) against S. aureus strains; conditions: Staphylococcus aureus
S. epidermidis = assay: In vitro activity (MIC) against S. epidermidis strains
[3] = test system: Staphylococcus spp. strains; assay: In vitro activity (MIC) against Staphylococcus spp. strains; conditions: for MIC50 / MIC90 / MIC: Staphylococcus
[4] = read-out: Mode (MIC), Staphylococcus spp. strains

COC1/C=C/O[C@@]2(C)Oc3c(C)c(O)c4c(O)c(c5c(c4c3C2=O)NC2C=C(C)C=CN52)NC(=O)/C(C)=C\C=C\C(C)C(O)C(C)C(O)C(C)C(O)C1C (stereo partly drawn) [25-desacetyl rifaximin]
4 µg/mL: MIC (S. aureus; strain S. aureus 252) | MIC (S. aureus; strain S. aureus 327) | MIC (S. aureus; strain S. aureus 329) | MIC (S. aureus; strain S. aureus 475) | MIC ([3]; strain S. spp. 1256) | MIC ([3]; strain S. spp. 1312) | MIC ([3]; strain S. spp. 1689)
> 16 µg/mL: MIC (S. aureus; strain S. aureus 406) | MIC (S. aureus; strain S. aureus 425)
16 µg/mL: MIC (S. aureus; strain S. aureus 215) | MIC (S. aureus; strain S. aureus 236) | MIC (S. aureus; strain S. aureus 267) | MIC (S. aureus; strain S. aureus 339) | MIC90 [3]
0.25 µg/mL: MIC (S. aureus; strain S. aureus 238) | MIC (S. aureus; strain S. aureus 279) | MIC ([3]; strain S. spp. 1745)
0.5 µg/mL: MIC (S. aureus; strain ATCC S. aureus 29213)
0.12 µg/mL: MIC (S. epidermidis; Staphylococcus epidermidis) | MIC (S. epidermidis; strain S. epidermidis 354) | MIC ([3]; strain S. spp. 1195)
> 50%: inhibition at 10 µM [1]
1 µg/mL: MIC (S. aureus; strain S. aureus 253) | MIC (S. aureus; strain S. aureus 409) | MIC ([3]; strain S. spp. 1102)
2 µg/mL: MIC (S. aureus; strain S. aureus 234) | MIC (S. aureus; strain S. aureus 237) | MIC (S. aureus; strain S. aureus 246) | MIC (S. aureus; strain S. aureus 272) | MIC (S. aureus; strain S. aureus 328) | MIC (S. aureus; strain S. aureus 345) | MIC (S. aureus; strain S. aureus 355) | MIC (S. aureus; strain S. aureus 408) | MIC (S. aureus; strain S. aureus 416) | MIC (S. aureus; strain S. aureus 436) | MIC50 [3] | MIC [3, 4] | MIC ([3]; strain S. spp. 1187)
two “hits”: hits (50% effect, either inhibition or stimulation) in screen against 168 targets [2]

CO[C@H]1/C=C/O[C@@]2(C)Oc3c(C)c(O)c4c(O)c(c5c(nc6cc(C)ccn65)c4c3C2=O)NC(=O)/C(C)=C\C=C\[C@H](C)[C@H](O)[C@@H](C)[C@@H](O)[C@@H](C)[C@H](OC(C)=O)[C@@H]1C [Rifaximin, reference compound]
0.015 µg/mL: MIC (S. aureus; strain ATCC S. aureus 29213)
0.03 to 1 µg/mL: Range (MIC) ([3]; Staphylococcus spp. strains)
0.5 µg/mL: MIC (S. aureus; strain S. aureus 246) | MIC (S. aureus; strain S. aureus 252) | MIC (S. aureus; strain S. aureus 328) | MIC (S. aureus; strain S. aureus 355) | MIC (S. aureus; strain S. aureus 406) | MIC (S. aureus; strain S. aureus 416) | MIC (S. aureus; strain S. aureus 425) | MIC (S. aureus; strain S. aureus 475) | MIC [3, 4]
< 50%: inhibition at 10 µM [1]
1 µg/mL: MIC (S. aureus; strain S. aureus 215) | MIC (S. aureus; strain S. aureus 236) | MIC (S. aureus; strain S. aureus 267) | MIC (S. aureus; strain S. aureus 327) | MIC (S. aureus; strain S. aureus 329) | MIC (S. aureus; strain S. aureus 339) | MIC90 [3] | MIC ([3]; strain S. spp. 1689)
0.06 µg/mL: MIC (S. aureus; strain S. aureus 237) | MIC (S. aureus; strain S. aureus 436) | MIC (S. epidermidis; Staphylococcus epidermidis) | MIC (S. epidermidis; strain S. epidermidis 354) | MIC ([3]; strain S. spp. 1102) | MIC ([3]; strain S. spp. 1195) | MIC ([3]; strain S. spp. 1745)
0.03 µg/mL: MIC (S. aureus; strain S. aureus 238) | MIC (S. aureus; strain S. aureus 279) | MIC ([3]; strain S. spp. 1187)
0.25 µg/mL: MIC (S. aureus; strain S. aureus 234) | MIC (S. aureus; strain S. aureus 272) | MIC (S. aureus; strain S. aureus 345) | MIC (S. aureus; strain S. aureus 408) | MIC50 [3] | MIC ([3]; strain S. spp. 1312)
0.12 µg/mL: MIC (S. aureus; strain S. aureus 253) | MIC (S. aureus; strain S. aureus 409) | MIC ([3]; strain S. spp. 1256)
